Data taken from ChEMBL document CHEMBL3865849, “Development of N-(4-Phenoxyphenyl)benzenesulfonamide Derivatives as Novel Nonsteroidal Progesterone Receptor Antagonists” (ACS Med Chem Lett, 2016).
The source made the active and inactive calls. The rule behind the calls is not given here.

How the values were obtained:
Progesterone receptor [1] = molecular target: T1, Progesterone receptor (Homo sapiens, UniProt P06401); assay: Antagonist activity at progesterone receptor in human T47D cells incubated for 24 hrs in presence of P4 by alkaline phosphatase assay; format: cell-based
T1 sequence (P06401 whole entry): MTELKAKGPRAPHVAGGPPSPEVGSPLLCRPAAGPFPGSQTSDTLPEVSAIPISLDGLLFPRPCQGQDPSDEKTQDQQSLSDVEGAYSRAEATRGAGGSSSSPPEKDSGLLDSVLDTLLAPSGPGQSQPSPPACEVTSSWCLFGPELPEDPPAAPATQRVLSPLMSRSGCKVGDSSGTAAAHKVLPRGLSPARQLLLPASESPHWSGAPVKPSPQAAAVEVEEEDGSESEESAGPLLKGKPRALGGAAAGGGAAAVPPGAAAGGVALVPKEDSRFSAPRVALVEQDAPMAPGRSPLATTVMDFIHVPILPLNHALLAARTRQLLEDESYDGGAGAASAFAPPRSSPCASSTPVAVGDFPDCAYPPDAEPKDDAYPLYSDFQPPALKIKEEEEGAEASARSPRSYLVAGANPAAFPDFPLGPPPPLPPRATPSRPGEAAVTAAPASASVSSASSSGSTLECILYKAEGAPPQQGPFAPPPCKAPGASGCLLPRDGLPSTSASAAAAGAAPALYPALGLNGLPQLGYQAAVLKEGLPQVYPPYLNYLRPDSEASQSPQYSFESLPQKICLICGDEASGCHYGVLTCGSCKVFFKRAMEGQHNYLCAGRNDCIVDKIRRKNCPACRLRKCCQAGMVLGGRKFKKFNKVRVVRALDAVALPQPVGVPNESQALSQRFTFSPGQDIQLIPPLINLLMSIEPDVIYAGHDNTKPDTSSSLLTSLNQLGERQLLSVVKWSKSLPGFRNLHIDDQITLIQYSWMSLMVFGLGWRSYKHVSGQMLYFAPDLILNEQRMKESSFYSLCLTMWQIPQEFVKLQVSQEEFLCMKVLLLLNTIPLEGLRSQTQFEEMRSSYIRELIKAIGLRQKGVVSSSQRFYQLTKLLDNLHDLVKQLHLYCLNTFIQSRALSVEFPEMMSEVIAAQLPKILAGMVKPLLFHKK

Progesterone receptor [2] = molecular target: T1, Progesterone receptor; assay: Displacement of [1,2,6,7-3H]-PG from recombinant human GST-tagged PR-LBD (657 to 933 residues) expressed in baculovirus infected insect cells measured after 24 hrs by liquid scintillation counting method
Estrogen receptor beta = Estrogen receptor beta (Homo sapiens, UniProt Q92731); assay: Antagonist activity at human Gal4-tagged estrogen receptor-beta LBD expressed in HEK293 cells measured after 24 hrs by luciferase reporter gene assay; format: cell-based
Glucocorticoid receptor = molecular target: T2, Glucocorticoid receptor (Homo sapiens, UniProt P04150); assay: Antagonist activity at human glucocorticoid receptor-alpha expressed in HEK293 cells measured after 24 hrs by luciferase reporter gene assay; format: cell-based
T2 sequence (P04150 whole entry): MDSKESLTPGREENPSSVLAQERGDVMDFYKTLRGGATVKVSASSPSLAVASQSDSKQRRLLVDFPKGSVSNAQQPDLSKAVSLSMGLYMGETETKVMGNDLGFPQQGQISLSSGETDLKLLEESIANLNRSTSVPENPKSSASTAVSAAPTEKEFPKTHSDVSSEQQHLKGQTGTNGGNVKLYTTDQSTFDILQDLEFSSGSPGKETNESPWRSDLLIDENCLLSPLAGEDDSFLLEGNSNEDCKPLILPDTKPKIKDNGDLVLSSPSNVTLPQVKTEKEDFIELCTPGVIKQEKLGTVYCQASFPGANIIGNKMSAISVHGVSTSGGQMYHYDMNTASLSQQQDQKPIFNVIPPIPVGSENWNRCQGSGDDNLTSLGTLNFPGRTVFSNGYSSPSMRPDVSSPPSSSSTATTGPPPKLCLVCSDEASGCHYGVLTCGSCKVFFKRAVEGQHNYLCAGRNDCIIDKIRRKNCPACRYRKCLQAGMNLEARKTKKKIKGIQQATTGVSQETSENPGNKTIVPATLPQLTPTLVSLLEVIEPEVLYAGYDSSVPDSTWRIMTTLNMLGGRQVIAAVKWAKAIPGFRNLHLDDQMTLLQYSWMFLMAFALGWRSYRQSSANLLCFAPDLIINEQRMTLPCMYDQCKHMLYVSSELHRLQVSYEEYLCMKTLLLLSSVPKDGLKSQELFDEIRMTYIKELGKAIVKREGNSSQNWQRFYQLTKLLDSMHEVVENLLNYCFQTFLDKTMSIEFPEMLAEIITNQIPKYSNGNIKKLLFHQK

Estrogen receptor = molecular target: T3, Estrogen receptor (Homo sapiens, UniProt P03372); assay: Antagonist activity at human Gal4-tagged estrogen receptor-alpha LBD expressed in HEK293 cells measured after 24 hrs by luciferase reporter gene assay; format: cell-based
T3 sequence (P03372 whole entry): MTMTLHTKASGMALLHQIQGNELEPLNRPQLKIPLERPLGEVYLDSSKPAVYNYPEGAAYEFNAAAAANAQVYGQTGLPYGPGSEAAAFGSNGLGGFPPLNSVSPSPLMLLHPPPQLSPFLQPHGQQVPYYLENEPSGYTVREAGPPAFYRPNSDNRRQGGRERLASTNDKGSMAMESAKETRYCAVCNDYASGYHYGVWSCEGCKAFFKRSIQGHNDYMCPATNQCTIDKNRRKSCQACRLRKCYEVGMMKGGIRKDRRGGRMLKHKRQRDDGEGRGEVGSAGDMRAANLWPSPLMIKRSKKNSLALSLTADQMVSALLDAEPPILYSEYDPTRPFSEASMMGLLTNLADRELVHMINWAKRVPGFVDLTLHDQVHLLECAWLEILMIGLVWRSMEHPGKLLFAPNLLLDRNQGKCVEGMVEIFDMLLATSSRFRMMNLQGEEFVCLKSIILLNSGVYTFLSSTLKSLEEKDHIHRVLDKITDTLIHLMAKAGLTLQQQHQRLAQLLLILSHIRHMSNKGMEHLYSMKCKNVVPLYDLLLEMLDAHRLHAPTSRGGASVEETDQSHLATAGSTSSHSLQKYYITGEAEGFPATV

Androgen receptor = molecular target: T4, Androgen receptor (Homo sapiens, UniProt P10275); assay: Antagonist activity at human AR expressed in HEK293 cells measured after 24 hrs by luciferase reporter gene assay; format: cell-based
T4 sequence (P10275 whole entry): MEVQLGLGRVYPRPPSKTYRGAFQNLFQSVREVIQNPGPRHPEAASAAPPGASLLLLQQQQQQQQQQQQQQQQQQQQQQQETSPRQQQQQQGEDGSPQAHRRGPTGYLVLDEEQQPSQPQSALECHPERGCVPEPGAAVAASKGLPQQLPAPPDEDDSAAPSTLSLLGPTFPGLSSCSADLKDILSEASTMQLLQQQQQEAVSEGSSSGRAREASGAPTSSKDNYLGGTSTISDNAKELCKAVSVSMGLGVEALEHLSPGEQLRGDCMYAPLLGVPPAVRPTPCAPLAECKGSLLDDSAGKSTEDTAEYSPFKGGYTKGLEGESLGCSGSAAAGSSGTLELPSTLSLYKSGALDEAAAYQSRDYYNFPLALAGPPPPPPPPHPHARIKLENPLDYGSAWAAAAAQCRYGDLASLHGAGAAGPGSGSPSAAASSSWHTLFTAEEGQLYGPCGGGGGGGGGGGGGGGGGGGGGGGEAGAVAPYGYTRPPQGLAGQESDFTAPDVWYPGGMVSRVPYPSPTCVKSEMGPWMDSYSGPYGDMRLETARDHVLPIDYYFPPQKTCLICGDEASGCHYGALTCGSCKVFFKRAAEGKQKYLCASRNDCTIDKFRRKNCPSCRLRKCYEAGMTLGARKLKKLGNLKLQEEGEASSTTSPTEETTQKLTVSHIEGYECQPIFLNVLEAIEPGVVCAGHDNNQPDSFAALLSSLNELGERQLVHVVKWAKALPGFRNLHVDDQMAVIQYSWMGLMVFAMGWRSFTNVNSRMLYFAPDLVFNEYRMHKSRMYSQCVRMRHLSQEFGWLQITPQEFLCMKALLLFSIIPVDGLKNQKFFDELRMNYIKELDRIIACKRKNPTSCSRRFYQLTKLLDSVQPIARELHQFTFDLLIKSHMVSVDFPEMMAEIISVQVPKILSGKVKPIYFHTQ

[3] = molecular target: T5, Progesterone receptor (Homo sapiens) (UniProt P06401); assay: Antagonist activity at progesterone receptor in human T47D cells assessed as suppression of P4-induced Na/K-ATPase-beta1 expression level at 1 and 10 uM measured after 16 hrs by Western blot analysis; format: cell-based
T5 sequence (whole entry): T1 sequence (P06401 whole entry)

Sequence of Estrogen receptor beta (Q92731 whole entry, the tested form may be a part): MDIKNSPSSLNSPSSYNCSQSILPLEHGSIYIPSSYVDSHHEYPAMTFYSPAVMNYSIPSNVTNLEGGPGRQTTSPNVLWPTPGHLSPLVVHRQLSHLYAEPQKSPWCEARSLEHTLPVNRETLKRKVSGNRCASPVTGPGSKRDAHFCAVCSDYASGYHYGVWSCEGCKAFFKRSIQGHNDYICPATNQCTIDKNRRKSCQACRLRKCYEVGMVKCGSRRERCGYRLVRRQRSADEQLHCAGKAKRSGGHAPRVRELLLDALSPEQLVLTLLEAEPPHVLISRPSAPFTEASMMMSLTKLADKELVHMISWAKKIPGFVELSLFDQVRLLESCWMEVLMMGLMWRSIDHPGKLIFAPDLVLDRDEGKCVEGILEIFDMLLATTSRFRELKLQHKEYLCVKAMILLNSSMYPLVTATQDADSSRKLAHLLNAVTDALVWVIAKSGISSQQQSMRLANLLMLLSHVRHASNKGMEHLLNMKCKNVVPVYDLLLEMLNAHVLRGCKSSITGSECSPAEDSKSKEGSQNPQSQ

Structure (SMILES) | IC50 (Progesterone receptor [1]) [µM] | other results
CN(c1ccc(Oc2ccccc2)cc1)S(=O)(=O)c1ccccc1Cl | 0.39 | –
O=S(=O)(Nc1ccc(Oc2ccccc2)cc1)c1cccc(Cl)c1Cl | 0.64 | –
O=S(=O)(Nc1ccc(Oc2ccccc2)cc1)c1cc(Cl)c(Cl)cc1Cl | 1.6 | –
COc1cccc(C(=O)Nc2ccc(Oc3ccc(O)cc3)c(C)c2)c1 | 5 | –
COc1cccc(S(=O)(=O)N(Cc2ccccc2)c2ccc(Oc3ccccc3)cc2)c1 | 2.6 | –
O=S(=O)(Nc1ccc(Oc2ccccc2)cc1)c1ccc2ccccc2c1 | 1.7 | –
O=S(=O)(c1ccc(Cl)cc1)N(Cc1ccccc1)c1ccc(Oc2ccccc2)cc1 | 3 | –
COc1ccc(S(=O)(=O)Nc2ccc(Oc3ccccc3)cc2)cc1 | 0.5 | –
COc1cccc(Oc2ccc(NC(=O)c3ccccc3)cc2)c1 | 3.8 | –
O=S(=O)(c1cccc(Cl)c1)N(Cc1ccccc1)c1ccc(Oc2ccccc2)cc1 | 2.2 | –
O=S(=O)(c1ccccc1Cl)N(Cc1ccccc1)c1ccc(Oc2ccccc2)cc1 | 2.2 | –
O=S(=O)(Cc1ccccc1)Nc1ccc(Oc2ccccc2)cc1 | 1.6 | –
O=S(=O)(Nc1ccc(Oc2ccccc2)cc1)c1cccc(Cl)c1 | 0.17 | IC50 (Progesterone receptor [2]): 0.062 µM
O=C(Nc1ccc(Oc2ccccc2)cc1)c1ccccc1 | 2.8 | –
CN(c1ccc(Oc2ccccc2)cc1)S(=O)(=O)c1ccc(Cl)cc1 | 0.96 | –
COc1ccc(S(=O)(=O)N(Cc2ccccc2)c2ccc(Oc3ccccc3)cc2)cc1 | 3.5 | –
O=S(=O)(Nc1ccc(Oc2ccccc2)cc1)c1cccc2ccccc12 | 0.19 | –
CN(c1ccc(Oc2ccccc2)cc1)S(=O)(=O)c1cccc(Cl)c1 | 0.65 | –
COc1ccc(S(=O)(=O)N(C)c2ccc(Oc3ccccc3)cc2)cc1 | 0.99 | –
O=S(=O)(Nc1ccc(Oc2ccccc2)cc1)c1ccccc1Cl | 0.74 | –
COc1cccc(S(=O)(=O)N(C)c2ccc(Oc3ccccc3)cc2)c1 | 0.47 | –

Now from value to molecule, other results behind:

IC50 (Progesterone receptor [1]) [µM] | Structure (SMILES) | other results
1.3 | Cc1ccc(NS(=O)(=O)c2cccc(Cl)c2)cc1 | –
0.27 | COc1cccc(Oc2ccc(NS(=O)(=O)c3cccc(Cl)c3)cc2)c1 | –
2.2 | CS(=O)(=O)Nc1ccc(Oc2ccccc2)cc1 | –
0.82 | COc1ccc(NS(=O)(=O)c2cccc(Cl)c2)cc1 | –
6 | O=C(c1ccccc1)c1ccc(NS(=O)(=O)c2cccc(Cl)c2)cc1 | IC50 (Progesterone receptor [2]): > 10 µM
0.11 | O=S(=O)(Nc1ccc(Oc2ccccc2)cc1)c1cccc(Br)c1 | IC50 (Progesterone receptor [2]): 0.047 µM
0.41 | O=S(=O)(Nc1ccc(Oc2ccccc2)cc1)c1ccc(Cl)c(Cl)c1 | –
0.33 | O=S(=O)(Nc1ccc(-c2ccccc2)cc1)c1cccc(Cl)c1 | IC50 (Progesterone receptor [2]): 0.11 µM
0.3 | N#Cc1cccc(S(=O)(=O)Nc2ccc(Oc3ccccc3)cc2)c1 | –
0.14 | O=[N+]([O-])c1cccc(S(=O)(=O)Nc2ccc(Oc3ccccc3)cc2)c1 | IC50 (Progesterone receptor [2]): 0.14 µM
0.51 | CC(C)c1ccc(NS(=O)(=O)c2cccc(Cl)c2)cc1 | –
0.25 | COc1cccc(S(=O)(=O)Nc2ccc(Oc3ccccc3)cc2)c1 | –
0.52 | O=S(=O)(Nc1ccc(Oc2ccccc2)cc1)c1ccccc1 | –
0.033 | O=S(=O)(Nc1ccc(Oc2ccccc2)cc1)c1cccc(C(F)(F)F)c1 | IC50 (Estrogen receptor beta): 23 µM; IC50 (Glucocorticoid receptor): 12 µM; IC50 (Estrogen receptor): > 30 µM; IC50 (Androgen receptor): 5.3 µM; IC50 (Progesterone receptor [2]): 0.04 µM; inhibition [3]: Active
0.37 | COc1cccc(Oc2ccc(NS(=O)(=O)c3cccc(OC)c3)cc2)c1 | –
1.3 | O=S(=O)(Nc1ccc(Br)cc1)c1cccc(Cl)c1 | –
1.5 | O=S(=O)(Nc1ccccc1)c1cccc(Cl)c1 | –
0.49 | COc1cccc(Oc2ccc(NS(=O)(=O)c3ccccc3)cc2)c1 | –
0.32 | O=S(=O)(Nc1ccc(Oc2ccccc2)cc1)c1cc(Cl)cc(Cl)c1 | –
0.45 | O=S(=O)(Nc1ccc(Cc2ccccc2)cc1)c1cccc(Cl)c1 | –
2 | COc1cccc(S(=O)(=O)Nc2ccc(Oc3ccc(O)cc3)c(C)c2)c1 | –
0.81 | O=S(=O)(Nc1ccc(OCc2ccccc2)cc1)c1cccc(Cl)c1 | –
0.67 | O=S(=O)(Nc1ccc(Oc2ccccc2)cc1)c1ccc(Cl)cc1 | –
0.22 | O=S(=O)(Nc1ccc(Oc2ccccc2)cc1)c1cccc(F)c1 | IC50 (Progesterone receptor [2]): 0.31 µM
